Source: patent publication US11325899B2, “Benzofurane and benzothiophene derivatives as PGE2 receptor modulators” (IDORSIA PHARMACEUTICALS LTD, priority 2017, dated 2022)

Key:
Assay type in all cases: cell-based
PTGER2 (EP2) = target: T1, PTGER2 (EP2) (Homo sapiens, UniProt P43116); test: hEP2 b-arrestin assay (PathHunter HEK 293 PTGER2 b-arrestin cells); details: antagonistic activity, beta-arrestin assay; read-out: hEP2 b-arr IC50
T1 construct: host or cells: HEK 293 (PathHunter PTGER2 b-arrestin cell line)
T1 sequence (P43116 whole entry): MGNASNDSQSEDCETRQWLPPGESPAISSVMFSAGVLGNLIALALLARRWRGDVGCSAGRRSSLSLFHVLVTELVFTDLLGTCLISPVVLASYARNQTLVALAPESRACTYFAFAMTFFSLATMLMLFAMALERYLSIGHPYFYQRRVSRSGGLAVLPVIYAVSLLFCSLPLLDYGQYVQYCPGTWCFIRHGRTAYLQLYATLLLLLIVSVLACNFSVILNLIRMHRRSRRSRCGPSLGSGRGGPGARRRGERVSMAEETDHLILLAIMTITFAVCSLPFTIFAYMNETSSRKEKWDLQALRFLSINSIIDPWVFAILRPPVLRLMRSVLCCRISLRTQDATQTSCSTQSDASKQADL
Procedure, shortened: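 Antagonism measured as inhibition of PGE2-driven β-arrestin 2 recruitment (enzyme fragment complementation, luminescence) in engineered HEK293 EP2 cells. Agonist: 5 μM PGE2, ~EC80, 120 min at 37 °C after 15 min compound preincubation; test range 10 μM-2 nM or 1 μM-0.2 nM, duplicates, IC50 fitted.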

PTGER4 (EP4) = target: T2, PTGER4 (EP4) (Homo sapiens, UniProt P35408); test: hEP4 b-arrestin assay (PathHunter HEK 293 PTGER4 b-arrestin cells); details: antagonistic activity, beta-arrestin assay; read-out: hEP4 b-arr IC50
T2 construct: host or cells: HEK 293 (PathHunter PTGER4 b-arrestin cell line)
T2 sequence (P35408 whole entry): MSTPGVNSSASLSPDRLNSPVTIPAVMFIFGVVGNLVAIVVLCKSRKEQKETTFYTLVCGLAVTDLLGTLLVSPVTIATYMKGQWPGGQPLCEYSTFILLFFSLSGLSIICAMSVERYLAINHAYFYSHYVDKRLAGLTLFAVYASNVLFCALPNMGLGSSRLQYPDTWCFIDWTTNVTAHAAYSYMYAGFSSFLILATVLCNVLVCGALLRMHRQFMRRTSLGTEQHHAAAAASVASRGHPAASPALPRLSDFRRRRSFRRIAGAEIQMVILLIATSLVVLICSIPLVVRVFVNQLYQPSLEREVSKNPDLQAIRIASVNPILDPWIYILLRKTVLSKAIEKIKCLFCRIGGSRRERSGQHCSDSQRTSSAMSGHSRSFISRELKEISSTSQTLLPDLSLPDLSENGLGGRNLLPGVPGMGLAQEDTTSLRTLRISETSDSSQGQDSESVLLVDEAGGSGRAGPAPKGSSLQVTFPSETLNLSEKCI
Procedure, shortened: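 β-Arrestin recruitment to EP4 was read as enzyme-fragment-complementation chemiluminescence in stably transfected HEK 293 cells. After 15 min compound preincubation at 37 °C (ranges 10 μM–2 nM or 1 μM–0.2 nM), cells were stimulated 120 min with PGE2 at 20 nM, its EC80. IC50 values were fitted from duplicates, with repeat measurements averaged.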

EP4 receptor = target: T3, EP4 receptor (Homo sapiens, UniProt P35408); test: hEP4 cAMP assay (BT549 breast cancer cells, HTRF cAMP, PGE2 stimulation); details: antagonistic activity, PGE2 6 nM (EC80)
T3 construct: BT549 breast cancer cells, express high endogenous EP4 levels and very low EP2 levels; host or cells: BT549 breast cancer cells
T3 sequence (P35408 whole entry): as above
Procedure, shortened: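 BT549 cells, with endogenous EP4 and very low EP2, were preincubated 45 min at room temperature with compound in HBSS/HEPES/BSA buffer with 2 mM IBMX. They were then stimulated 30 min with 6 nM PGE2 (EC80). cAMP was measured by HTRF competitive immunoassay against a calibrator; IC50 from duplicate dose-response as % of DMSO control.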

IC50 (PTGER2 (EP2)) [nM]	IC50 (PTGER4 (EP4)) [nM]	IC50 (EP4 receptor) [nM]	SMILES
20	57	147	CCCc1cc(-c2cc(NCCc3c(C)sc4c(C)cc(F)cc34)ncn2)ccc1C(=O)O [Example 45, 4-{6-[2-(5-Fluoro-2,7-dimethyl-benzo[b]thiophen-3-yl)-ethylamino]-pyrimidin-4-yl}-2-propyl-benzoic acid]
21	80	117	COc1ccc(F)c2c(CCNc3cc(-c4ccc(C(=O)O)c(OC5CC5)c4)ncn3)c(C)sc12 [Example 84, 2-Cyclopropoxy-4-{6-[2-(4-fluoro-7-methoxy-2-methyl-benzo[b]thiophen-3-yl)-ethylamino]-pyrimidin-4-yl}-benzoic acid]
25	189	117	Cc1cc(-c2cc(NCCc3c(C)oc4c(C)cc(F)cc34)ncn2)sc1C(=O)O [Example 2, 5-{6-[2-(5-Fluoro-2,7-dimethyl-benzofuran-3-yl)-ethylamino]-pyrimidin-4-yl}-3-methyl-thiophene-2-carboxylic acid]
22	101	111	COc1cc(Cl)cc2c(CCNc3cc(-c4ccc(C(=O)O)c(OC5CC5)c4)ncn3)c(C)oc12 [Example 83, 4-{6-[2-(5-Chloro-7-methoxy-2-methyl-benzofuran-3-yl)-ethylamino]-pyrimidin-4-yl}-2-cyclopropoxy-benzoic acid]
9	34	44	CCOc1cc(-c2cc(NCCc3c(C#N)sc4c(C)cc(F)cc34)ncn2)ccc1C(=O)O [Example 53, 4-{6-[2-(2-Cyano-5-fluoro-7-methyl-benzo[b]thiophen-3-yl)-ethylamino]-pyrimidin-4-yl}-2-ethoxy-benzoic acid]
12	454	278	CCOc1cc(-c2cc(NCCc3c(Br)sc4c(C)cc(F)cc34)ncn2)ccc1C(=O)O [Example 58, 4-{6-[2-(2-Bromo-5-fluoro-7-methyl-benzo[b]thiophen-3-yl)-ethylamino]-pyrimidin-4-yl}-2-ethoxy-benzoic acid]
47	96	71	CCc1cc(-c2cc(NCCc3c(C)sc4c(C)cc(F)cc34)ncn2)cc(C)c1CC(=O)O [Example 194, (2-Ethyl-4-{6-[2-(5-fluoro-2,7-dimethyl-benzo[b]thiophen-3-yl)-ethylamino]-pyrimidin-4-yl}-6-methyl-phenyl)-acetic acid]
